For the molecule `COc1cc2c(Oc3cc(O)c(C)cc3F)ccnc2cc1OCCCN1CCOCC1` [Example 3, 4-(2-fluoro-5-hydroxy-4-methylphenoxy)-6-methoxy-7-(3-morpholinopropoxy)quinoline], the melting point lay in the range of 210 to 217 °C.

`COc1cc2nccc(Nc3cc(O)c(Cl)cc3F)c2cc1OC.Cl`: the melting point fell in the range of 312 to 318 °C.

In turn, `COc1cc2c(Nc3ccc(C)c(OC(C)=O)c3)ccnc2cc1OCc1ccccc1.Cl` registered a melting point of 230 to 232 °C.

Turning to `COCCOc1cc2nccc(Nc3ccc(Cl)cc3F)c2cc1C#N.Cl`, the melting point lay within 247 to 250 °C.

The molecule `COCCOc1cc2nccc(Oc3cccc(O)c3)c2cc1C#N` [Example 50, 6-cyano-4-(3-hydroxyphenoxy)-7-(2-methoxyethoxy)quinoline] gave a melting point of 159 to 163 °C.

On to `COCCOc1cc2nccc(Nc3cc(O)c(C)cc3F)c2cc1C#N.Cl`, for which the melting point was 300 to 302 °C.

With `COc1cc2nccc(Nc3cc(O)c(C)cc3F)c2cc1C#N.Cl`, the melting point was in the range of 278 to 281 °C.

As to `COc1cc2nccc(Nc3cc(O)c(C)cc3F)c2cc1OC.Cl`, the melting point is > 280 °C.

Take `COCCOc1cc2nccc(Nc3ccc(C)c(O)c3)c2cc1C#N.Cl`: the melting point fell in the range of 275 to 278 °C.

In the case of `COc1cc2c(Nc3ccc(Cl)cc3F)ccnc2cc1OCc1ccccc1.Cl`, the melting point is 222 to 225 °C.

Regarding `COc1cc2nccc(Oc3cccc(O)c3)c2cc1OC` [Example 26, 6,7-dimethoxy-4-(3-hydroxyphenoxy)quinoline], the melting point was 140 °C.

`COc1cc2c(Nc3ccc(Cl)cc3F)ccnc2cc1OCCN(C)C.Cl`: the melting point was > 250 °C.

Take `COc1cc2nccc(Nc3cccc(O)c3)c2cc1OC.Cl`: the melting point lay within 280 to 283 °C.

For the origin of these results see patent US6809097B1, “Quinoline derivatives inhibiting the effect of growth factors such as VEGF” (Zeneca Limited, priority 1996, dated 2004).
